# Experimental data: ChEMBL document CHEMBL3351975, “Design and synthesis of new series of coumarin-aminopyran derivatives possessing potential anti-depressant-like activity” (Bioorg Med Chem Lett, 2015)
# Calls of active or inactive are those of the source. The calls are words filed in the database; no cut-off is given here.
# How the values were obtained:
# Mus musculus [1] = experiment: Antidepressant-like activity in Swiss albino mouse assessed as decrease in immobility time at 0.5 mg/kg, ip measured for 5 mins by forced swimming test relative to control; assay type: functional; conditions: route intraperitoneal
# Mus musculus [2] = experiment: Antidepressant-like activity in Swiss albino mouse assessed as decrease in immobility time at 1 mg/kg, ip measured for 5 mins by forced swimming test relative to control; assay type: functional, organism-based; design: dose 1 mg/kg
# Mus musculus [3] = experiment: Neurotoxicity in Swiss albino mouse assessed as motor impairment effects at 1 mg/kg, ip measured for 30 to 180 mins duration by rotarod test relative to control; assay type: toxicity, organism-based; design: dose 1 mg/kg, route intraperitoneal; conditions: in vivo
# Mus musculus [4] = experiment: Antidepressant-like activity in Swiss albino mouse assessed as decrease in immobility time at 0.5 mg/kg, ip measured for 5 mins by tail suspension test relative to control; assay type: functional, organism-based; design: dose 0.5 mg/kg
# Mus musculus [5] = experiment: Antidepressant-like activity in Swiss albino mouse assessed as decrease in immobility time at 0.25 mg/kg, ip measured for 5 mins by forced swimming test relative to control; assay type: functional; conditions: for inhibition in vivo at 0.25 mg/kg: route intraperitoneal
# Mus musculus [6] = experiment: Neurotoxicity in Swiss albino mouse assessed as effect on locomotor activity measured as total distance travelled at 0.5 mg/kg, ip measured for 2 min at 30 min intervals for 90 mins duration by open field test relative to control; assay type: toxicity, organism-based; design: dose 0.5 mg/kg, route intraperitoneal; conditions: in vivo, 1.5 h
# Mus musculus [7] = experiment: Neurotoxicity in Swiss albino mouse assessed as effect on locomotor activity measured as horizontal activity at 0.5 mg/kg, ip measured for 2 min at 30 min intervals for 90 mins duration by open field test relative to control; assay type: toxicity, organism-based; design: dose 0.5 mg/kg, route intraperitoneal; conditions: in vivo, 1.5 h
# Mus musculus [8] = experiment: Antidepressant-like activity in Swiss albino mouse assessed as decrease in immobility time at 20 mg/kg, ip measured for 5 mins by forced swimming test relative to control; assay type: functional; conditions: route intraperitoneal
Compound,inhibition in vivo at 0.5 mg/kg (Mus musculus [1]) [%],Activity (Mus musculus [2]),Activity (Mus musculus [4]),further results
COc1ccc(-c2cc3cc(C4C(C#N)=C(N)OC5=C4C(=O)CCC5)cc(C(C)(C)C)c3oc2=O)cc1OC (centres undefined),-16.6,–,–,–
COc1cc(-c2cc3cc(C4C(C#N)=C(N)OC5=C4C(=O)CCC5)cc(C)c3oc2=O)cc(OC)c1OC (centres undefined),5.22,–,–,–
CCC(C)c1cc(C2C(C#N)=C(N)OC3=C2C(=O)CC(C)(C)C3)cc2cc(-c3cc(OC)c(OC)c(OC)c3)c(=O)oc12 (centres undefined),28.2,Active,–,–
COc1ccc(-c2cc3cc(C4C(C#N)=C(N)OC5=C4C(=O)CC(C)(C)C5)cc(C(C)C)c3oc2=O)cc1OC (centres undefined),86.6,Active,Active,Activity (Mus musculus [3]): Non-toxic; inhibition in vivo at 0.25 mg/kg (Mus musculus [5]): 41%; Activity (Mus musculus [6]): Non-toxic; Activity (Mus musculus [7]): Non-toxic
CCC(C)c1cc(C2C(C#N)=C(N)OC3=C2C(=O)CC(C)(C)C3)cc2cc(-c3ccc(OC)c(OC)c3)c(=O)oc12 (centres undefined),57.4,Active,Active,Activity (Mus musculus [3]): Non-toxic; inhibition in vivo at 0.25 mg/kg (Mus musculus [5]): 35%; Activity (Mus musculus [6]): Non-toxic; Activity (Mus musculus [7]): Non-toxic
COc1ccc(-c2cc3cc(C4C(C#N)=C(N)OC5=C4C(=O)CCC5)cc(C(C)C)c3oc2=O)cc1 (centres undefined),69.7,Active,Active,Activity (Mus musculus [3]): Non-toxic; inhibition (Mus musculus [5]): inactive; Activity (Mus musculus [6]): Non-toxic; Activity (Mus musculus [7]): Non-toxic
COc1ccc(-c2cc3cc(C4C(C#N)=C(N)OC5=C4C(=O)CC(C)(C)C5)cc(C(C)(C)C)c3oc2=O)cc1 (centres undefined),27.2,–,–,–
COc1cc(-c2cc3cc(C4C(C#N)=C(N)OC5=C4C(=O)CCC5)cc(C(C)C)c3oc2=O)cc(OC)c1OC (centres undefined),31.9,–,–,–
COc1ccc(-c2cc3cc(C4C(C#N)=C(N)OC5=C4C(=O)CC(C)(C)C5)cc(C(C)C)c3oc2=O)cc1 (centres undefined),64.9,Active,Active,Activity (Mus musculus [3]): Non-toxic; inhibition (Mus musculus [5]): inactive; Activity (Mus musculus [6]): Non-toxic; Activity (Mus musculus [7]): Non-toxic
COc1cc(-c2cc3cc(C4C(C#N)=C(N)OC5=C4C(=O)CCC5)cc(C(C)(C)C)c3oc2=O)cc(OC)c1OC (centres undefined),5.33,–,–,–
CCC(C)c1cc(C2C(C#N)=C(N)OC3=C2C(=O)CCC3)cc2cc(-c3cc(OC)c(OC)c(OC)c3)c(=O)oc12 (centres undefined),56.1,Active,Active,Activity (Mus musculus [3]): Non-toxic; inhibition (Mus musculus [5]): inactive; Activity (Mus musculus [6]): Non-toxic; Activity (Mus musculus [7]): Non-toxic
CCC(C)c1cc(C2C(C#N)=C(N)OC3=C2C(=O)CCC3)cc2cc(-c3ccc(OC)cc3)c(=O)oc12 (centres undefined),35,Active,–,–
CNCCC(Oc1ccc(C(F)(F)F)cc1)c1ccccc1 (centres undefined) [FLUOXETINE],–,–,Active,inhibition in vivo at 20 mg/kg (Mus musculus [8]): 69.8%
COc1ccc(-c2cc3cc(C4C(C#N)=C(N)OC5=C4C(=O)CCC5)cc(C(C)C)c3oc2=O)cc1OC (centres undefined),57.2,Active,Active,Activity (Mus musculus [3]): Non-toxic; inhibition in vivo at 0.25 mg/kg (Mus musculus [5]): 49%; Activity (Mus musculus [6]): Non-toxic; Activity (Mus musculus [7]): Non-toxic
COc1cc(-c2cc3cc(C4C(C#N)=C(N)OC5=C4C(=O)CC(C)(C)C5)cc(C(C)(C)C)c3oc2=O)cc(OC)c1OC (centres undefined),30.1,–,–,–
COc1cc(-c2cc3cc(C4C(C#N)=C(N)OC5=C4C(=O)CC(C)(C)C5)cc(C)c3oc2=O)cc(OC)c1OC (centres undefined),6.37,–,–,–
CN(C)CCCN1c2ccccc2CCc2ccccc21,–,–,Active,–
COc1cc(-c2cc3cc(C4C(C#N)=C(N)OC5=C4C(=O)CC(C)(C)C5)cc(C(C)C)c3oc2=O)cc(OC)c1OC (centres undefined),29.2,Active,–,–
CCC(C)c1cc(C2C(C#N)=C(N)OC3=C2C(=O)CC(C)(C)C3)cc2cc(-c3ccc(OC)cc3)c(=O)oc12 (centres undefined),26.9,Active,–,–
COc1ccc(-c2cc3cc(C4C(C#N)=C(N)OC5=C4C(=O)CC(C)(C)C5)cc(C)c3oc2=O)cc1OC (centres undefined),10.4,–,–,–
COc1ccc(-c2cc3cc(C4C(C#N)=C(N)OC5=C4C(=O)CCC5)cc(C(C)(C)C)c3oc2=O)cc1 (centres undefined),30.6,Active,–,–
COc1ccc(-c2cc3cc(C4C(C#N)=C(N)OC5=C4C(=O)CC(C)(C)C5)cc(C(C)(C)C)c3oc2=O)cc1OC (centres undefined),22.5,–,–,–
